Assay results from ChEMBL document CHEMBL1201862, “PubChem BioAssay data set” (2004).
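Exposure lasted 48 hours, with cells grown in 96-well plates and compounds tested at five concentrations. Abbreviation: GI50, concentration required for 50% inhibition of growth.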 Activity calls are given as the source filed them. No stated cut-off is given here; in the data, active = GI50 up to about 1.1 µM and inactive = higher.

Tests used:
Assay in all cases: inhibition of tumour cell growth, NCI panel, 48 h
EKVX = tested on: EKVX
KM-20L2 = tested on: KM-20L2
NCI-H522 = tested on: NCI-H522
HCC 2998 = tested on: HCC 2998
SW-620 = tested on: SW-620
A549 = tested on: A549
M14 = tested on: M14
SF-295 = tested on: SF-295
LXFL 529 = tested on: LXFL 529
786-0 = tested on: 786-0
DMS-114 = tested on: DMS-114
UACC-62 = tested on: UACC-62
UACC-257 = tested on: UACC-257
HL-60 = tested on: HL-60
PC-3 = tested on: PC-3
SR = tested on: SR
NCI/ADR-RES = tested on: NCI/ADR-RES
MDA-MB-231 = tested on: MDA-MB-231
MCF7 = tested on: MCF7
DU-145 = tested on: DU-145

Measured: GI50

Cc1cc2c(c(C(=O)O)c1C)-c1cccc(F)c1C2=O
inactive: EKVX > 100 µM | KM-20L2 > 100 µM | NCI-H522 > 100 µM | HCC 2998 > 100 µM | SW-620 > 100 µM | A549 > 100 µM | M14 > 100 µM | SF-295 > 100 µM | LXFL 529 > 100 µM | 786-0 > 100 µM | DMS-114 > 100 µM | UACC-62 > 100 µM | UACC-257 > 100 µM

N#Cc1cccc(NC(=O)c2ccc(C(=O)O)c(C(=O)c3ccc(C(=O)O)c(C(=O)Nc4cccc(C#N)c4)c3)c2)c1
inactive: EKVX > 100 µM | KM-20L2 > 100 µM | NCI-H522 > 100 µM | SW-620 > 100 µM | A549 > 100 µM | M14 > 100 µM | SF-295 > 100 µM | LXFL 529 > 100 µM | 786-0 > 100 µM | DMS-114 > 100 µM | UACC-62 > 100 µM | UACC-257 > 100 µM | HL-60 > 100 µM

c1ccc(NCn2cnc3ccccc32)cc1
inactive: EKVX > 100 µM | KM-20L2 6.04 µM | NCI-H522 > 100 µM | SW-620 35.6 µM | A549 > 100 µM | SF-295 > 100 µM | LXFL 529 > 100 µM | 786-0 > 100 µM | DMS-114 > 100 µM | UACC-62 7.45 µM | UACC-257 > 100 µM

COc1ccc(/C=C2\CCC/C(=C\c3ccc(O)c(CN4CCCCC4)c3)C2=O)cc1
inactive: EKVX 10 µM | NCI-H522 2.96 µM | HCC 2998 5.45 µM | SW-620 3.33 µM | PC-3 4.74 µM | A549 8 µM | SR 1.35 µM | NCI/ADR-RES 2.77 µM | M14 4.06 µM | SF-295 6.95 µM | 786-0 4.17 µM | MDA-MB-231 4.09 µM | MCF7 3.73 µM | UACC-62 3.9 µM | UACC-257 4.76 µM | DU-145 9.02 µM | HL-60 6.93 µM

COC(=O)C(=O)C(C(=O)C(=O)Nc1ccc(F)cc1)c1nc2ccc([N+](=O)[O-])cc2nc1O (configuration not stated)
inactive: EKVX > 100 µM | KM-20L2 > 100 µM | NCI-H522 > 100 µM | HCC 2998 > 100 µM | SW-620 > 100 µM | A549 > 100 µM | SR > 100 µM | M14 > 100 µM | SF-295 > 100 µM | LXFL 529 > 100 µM | 786-0 > 100 µM | UACC-257 > 100 µM | HL-60 > 100 µM

NC(=O)C12C3C4C1C1C2C3C41C(N)=O (configuration not stated)
inactive: EKVX > 100 µM | KM-20L2 > 100 µM | NCI-H522 > 100 µM | HCC 2998 > 100 µM | SW-620 > 100 µM | A549 > 100 µM | M14 > 100 µM | SF-295 > 100 µM | LXFL 529 > 100 µM | 786-0 > 100 µM | DMS-114 > 100 µM | UACC-62 > 100 µM | UACC-257 > 100 µM | HL-60 > 100 µM

CCOC(=O)C(=Cc1cc(OC)ccc1OC)C(=O)OCC
inactive: EKVX 10.6 µM | KM-20L2 2.21 µM | NCI-H522 3.66 µM | HCC 2998 20 µM | SW-620 3.52 µM | A549 6.3 µM | M14 11.6 µM | SF-295 12.4 µM | LXFL 529 3.26 µM | 786-0 3.56 µM | DMS-114 2.81 µM | UACC-62 1.83 µM | HL-60 1.96 µM

COC(=O)C1=C(C(=O)OC)C23C=CC=CC24C(C(=O)OC)=C(C(=O)OC)C4C1C3 (configuration not stated)
inactive: EKVX > 100 µM | KM-20L2 > 100 µM | NCI-H522 32.7 µM | HCC 2998 > 100 µM | SW-620 > 100 µM | A549 > 100 µM | M14 > 100 µM | SF-295 > 100 µM | LXFL 529 74.1 µM | 786-0 > 100 µM | DMS-114 88.7 µM | UACC-62 56.6 µM | UACC-257 50.2 µM | HL-60 41.7 µM

COc1cc(/C=N/N=C(\N)NO)cc(Cl)c1O
inactive: EKVX 30.9 µM | NCI-H522 > 100 µM | HCC 2998 45.3 µM | SW-620 99.3 µM | A549 41.8 µM | SR 40.7 µM | M14 33.4 µM | SF-295 58.7 µM | LXFL 529 44 µM | 786-0 43.7 µM | DMS-114 34.2 µM | UACC-62 42.4 µM | UACC-257 73.8 µM

Fc1ccc(C2SCc3nc4ccccc4n32)cc1F (configuration not stated)
inactive: EKVX 39.2 µM | KM-20L2 55.5 µM | NCI-H522 18.3 µM | HCC 2998 37.6 µM | SW-620 39.4 µM | A549 33.6 µM | M14 25.7 µM | SF-295 40.5 µM | LXFL 529 23.4 µM | 786-0 55.3 µM | DMS-114 18.1 µM | UACC-62 20.7 µM | UACC-257 42.1 µM | HL-60 7.8 µM

Cc1ccc(-c2nc3cc(F)c(N4CCN(C)CC4)cc3[nH]2)cc1
inactive: EKVX 23.1 µM | NCI-H522 14.5 µM | HCC 2998 11.9 µM | SW-620 37.1 µM | PC-3 24.1 µM | A549 19.1 µM | SR 32.6 µM | NCI/ADR-RES 28.8 µM | M14 16.7 µM | SF-295 16.6 µM | 786-0 17.6 µM | MDA-MB-231 71.3 µM | MCF7 15.3 µM | UACC-62 16.3 µM | UACC-257 17.2 µM | DU-145 31.1 µM | HL-60 21.4 µM

CCCCNC(=O)c1cc(S(=O)(=O)n2ccnc2O)c(SC)cc1Cl
inactive: EKVX > 100 µM | NCI-H522 > 100 µM | HCC 2998 > 100 µM | SW-620 > 100 µM | PC-3 > 100 µM | A549 > 100 µM | SR > 100 µM | NCI/ADR-RES > 100 µM | M14 > 100 µM | SF-295 > 100 µM | 786-0 > 100 µM | MDA-MB-231 > 100 µM | MCF7 > 100 µM | UACC-62 > 100 µM | UACC-257 > 100 µM | DU-145 > 100 µM | HL-60 > 100 µM

CC(=O)c1ccccc1NP(=O)(c1ccccc1)c1ccccc1
inactive: EKVX 45.4 µM | NCI-H522 37.3 µM | HCC 2998 > 100 µM | SW-620 97.7 µM | PC-3 > 100 µM | A549 56.9 µM | SR 60 µM | NCI/ADR-RES 14.1 µM | M14 33.9 µM | SF-295 74.6 µM | 786-0 > 100 µM | MDA-MB-231 32.5 µM | MCF7 64.6 µM | UACC-62 35.2 µM | UACC-257 68.9 µM | DU-145 > 100 µM | HL-60 33.2 µM

COc1ccccc1NC(=O)CC(=O)NNCC(=O)Nc1nc(-c2ccccc2)cs1
inactive: EKVX > 100 µM | KM-20L2 > 100 µM | NCI-H522 > 100 µM | HCC 2998 4.1 µM | SW-620 > 100 µM | A549 > 100 µM | M14 > 100 µM | SF-295 > 100 µM | LXFL 529 > 100 µM | 786-0 > 100 µM | DMS-114 > 100 µM | UACC-62 > 100 µM | HL-60 > 100 µM

O=C(CC1(O)C(=O)Nc2ccc([N+](=O)[O-])cc21)c1ccncc1 (configuration not stated)
inactive: EKVX > 100 µM | KM-20L2 76.4 µM | NCI-H522 29.8 µM | HCC 2998 67 µM | SW-620 20.5 µM | A549 > 100 µM | M14 51.6 µM | SF-295 80.2 µM | 786-0 69.7 µM | DMS-114 30.5 µM | UACC-62 29.2 µM | UACC-257 17.9 µM | HL-60 19.3 µM

Cc1nc2ccccc2c(=O)n1/N=C(\N=N\c1ccc(Cl)cc1)c1cccc(-c2ccco2)c1
inactive: EKVX 51.8 µM | KM-20L2 27.3 µM | NCI-H522 17.7 µM | SW-620 42.5 µM | A549 40.6 µM | M14 34.1 µM | SF-295 48.5 µM | LXFL 529 25.3 µM | 786-0 39.6 µM | UACC-62 22.4 µM | HL-60 25.1 µM

CCCCNc1nc(C#N)c(N)s1
inactive: KM-20L2 > 100 µM | NCI-H522 > 100 µM | HCC 2998 > 100 µM | SW-620 > 100 µM | A549 > 100 µM | SR > 100 µM | M14 > 100 µM | SF-295 > 100 µM | LXFL 529 > 100 µM | 786-0 > 100 µM | UACC-62 > 100 µM | UACC-257 > 100 µM | HL-60 > 100 µM

CC(c1ccccc1)C(O)S(=O)(=O)O (configuration not stated)
inactive: EKVX > 100 µM | KM-20L2 > 100 µM | NCI-H522 > 100 µM | SW-620 > 100 µM | A549 > 100 µM | M14 > 100 µM | SF-295 > 100 µM | LXFL 529 > 100 µM | 786-0 > 100 µM | DMS-114 98.9 µM | UACC-62 > 100 µM | UACC-257 > 100 µM

O=C(O)c1cc2c(s1)C(=O)c1sccc1C2=O
inactive: EKVX 15.7 µM | KM-20L2 19.2 µM | NCI-H522 3.54 µM | HCC 2998 18.7 µM | SW-620 2.31 µM | PC-3 9.82 µM | A549 4.25 µM | SR 2.81 µM | NCI/ADR-RES 5.4 µM | M14 1.43 µM | SF-295 2.26 µM | 786-0 8.34 µM | MDA-MB-231 9.73 µM | DMS-114 3.34 µM | MCF7 2.8 µM | UACC-62 2.08 µM | UACC-257 3.51 µM | DU-145 2.33 µM | HL-60 4.18 µM
